ChEMBL document CHEMBL4376853, “Synthesis and structure-activity relationship studies of α-naphthoflavone derivatives as CYP1B1 inhibitors” (Eur J Med Chem, 2020)

Legend:
Cytochrome P450 1B1 [1] = target: T1, Cytochrome P450 1B1 (Homo sapiens, UniProt Q16678); assay: Inhibition of human recombinant CYP1B1 using 7-ethoxyresorufin as substrate in presence of glucose-6-phosphate, glucose-6-phosphate dehydrogenase and NADPH-generating system incubated for 35 mins by fluorometry
T1 sequence (Q16678 whole entry): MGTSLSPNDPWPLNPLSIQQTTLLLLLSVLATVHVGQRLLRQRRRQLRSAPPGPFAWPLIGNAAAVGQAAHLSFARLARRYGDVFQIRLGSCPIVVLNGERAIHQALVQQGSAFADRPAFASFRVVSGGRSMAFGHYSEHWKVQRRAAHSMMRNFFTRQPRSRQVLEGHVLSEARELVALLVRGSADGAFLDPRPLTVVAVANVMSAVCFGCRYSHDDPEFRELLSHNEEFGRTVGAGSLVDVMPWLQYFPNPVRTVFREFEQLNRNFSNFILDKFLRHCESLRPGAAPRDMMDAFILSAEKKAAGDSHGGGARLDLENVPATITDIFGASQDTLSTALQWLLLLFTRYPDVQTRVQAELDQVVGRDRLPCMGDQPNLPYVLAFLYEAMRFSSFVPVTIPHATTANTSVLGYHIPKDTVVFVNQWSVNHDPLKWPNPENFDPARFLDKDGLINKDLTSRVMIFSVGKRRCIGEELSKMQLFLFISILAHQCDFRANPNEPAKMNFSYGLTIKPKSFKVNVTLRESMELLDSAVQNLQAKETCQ

Cytochrome P450 1A1 = target: T2, Cytochrome P450 1A1 (Homo sapiens, UniProt P04798); assay: Inhibition of human recombinant CYP1A1 using 7-ethoxyresorufin as substrate in presence of glucose-6-phosphate, glucose-6-phosphate dehydrogenase and NADPH-generating system incubated for 15 mins by fluorometry; format: ADME
T2 sequence (P04798 whole entry): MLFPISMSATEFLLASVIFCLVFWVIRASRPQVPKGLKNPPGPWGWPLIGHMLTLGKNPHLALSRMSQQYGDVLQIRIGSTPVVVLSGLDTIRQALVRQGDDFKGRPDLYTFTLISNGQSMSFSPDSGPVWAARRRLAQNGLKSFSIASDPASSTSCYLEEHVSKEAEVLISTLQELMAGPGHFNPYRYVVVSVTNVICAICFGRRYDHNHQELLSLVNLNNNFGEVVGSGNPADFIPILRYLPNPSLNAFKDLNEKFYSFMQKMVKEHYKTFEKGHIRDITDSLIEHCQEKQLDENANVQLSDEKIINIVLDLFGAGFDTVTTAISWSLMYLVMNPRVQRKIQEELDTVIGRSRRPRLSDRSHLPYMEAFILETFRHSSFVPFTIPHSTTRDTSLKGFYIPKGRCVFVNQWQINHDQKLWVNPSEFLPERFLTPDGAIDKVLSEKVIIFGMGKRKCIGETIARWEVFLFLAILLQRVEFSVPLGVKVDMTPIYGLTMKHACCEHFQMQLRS

Cytochrome P450 1A2 = target: T3, Cytochrome P450 1A2 (Homo sapiens, UniProt P05177); assay: Inhibition of human recombinant CYP1A2 using 7-ethoxyresorufin as substrate in presence of glucose-6-phosphate, glucose-6-phosphate dehydrogenase and NADPH-generating system incubated for 50 mins by fluorometry; format: ADME
T3 sequence (P05177 whole entry): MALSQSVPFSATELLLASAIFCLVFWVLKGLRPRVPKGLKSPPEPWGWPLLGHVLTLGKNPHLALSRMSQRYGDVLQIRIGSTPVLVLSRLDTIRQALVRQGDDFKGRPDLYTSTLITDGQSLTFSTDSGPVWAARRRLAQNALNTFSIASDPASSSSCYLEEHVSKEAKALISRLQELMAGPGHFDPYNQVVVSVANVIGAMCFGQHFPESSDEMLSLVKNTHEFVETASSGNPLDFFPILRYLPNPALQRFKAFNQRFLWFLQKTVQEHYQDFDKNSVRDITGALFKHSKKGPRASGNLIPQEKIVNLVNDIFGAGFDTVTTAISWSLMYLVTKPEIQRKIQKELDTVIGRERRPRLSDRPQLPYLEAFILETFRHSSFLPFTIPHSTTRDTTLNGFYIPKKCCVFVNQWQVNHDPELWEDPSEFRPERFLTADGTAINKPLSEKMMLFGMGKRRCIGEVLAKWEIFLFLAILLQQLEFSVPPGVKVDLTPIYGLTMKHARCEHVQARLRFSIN

Homo sapiens [2] = organism: Homo sapiens; assay: Selectivity index, ratio of IC50 for human recombinant CYP1A1 to IC50 for human recombinant CYP1B1 using 7-ethoxyresorufin as substrate in presence of glucose-6-phosphate, glucose-6-phosphate dehydrogenase and NADPH-generating system by fluorometry
[3] = Aqueous solubility of the compound; format: physicochemical; details: buffer
Homo sapiens [4] = organism: Homo sapiens; assay: Selectivity index, ratio of IC50 for human recombinant CYP1A2 to IC50 for human recombinant CYP1B1 using 7-ethoxyresorufin as substrate in presence of glucose-6-phosphate, glucose-6-phosphate dehydrogenase and NADPH-generating system by fluorometry
Cytochrome P450 1B1 [5] = target: T1, Cytochrome P450 1B1; assay: Potency index, ratio of IC50 for ANF to IC50 for test compound for inhibition of human recombinant CYP1B1 using 7-ethoxyresorufin as substrate in presence of glucose-6-phosphate, glucose-6-phosphate dehydrogenase and NADPH-generating system incubated for 35 mins by fluorometry; details: for selectivity ratio at 35 min: read-out: Ratio IC50

Row | Compound | IC50 (Cytochrome P450 1B1 [1]) [nM] | IC50 (Cytochrome P450 1A1) [nM] | IC50 (Cytochrome P450 1A2) [nM] | Ratio IC50 (Homo sapiens [2]) | solubility [3] [mg/mL] | Ratio IC50 (Homo sapiens [4]) | relative potency vs ANF (IC50 ratio) at 35 min (Cytochrome P450 1B1 [5]) | selectivity ratio at 35 min (Cytochrome P450 1B1 [5])
1 | CN1CCN(c2ccc(-c3cc(=O)c4ccc5ccccc5c4o3)cc2)CC1 | 63.8 | 153 | > 1000 | 2.4 | > 20 |  |  | 
2 | S=c1cc(-c2ccc(Cl)cc2)oc2c1ccc1ccccc12 | 1.6 | 9.6 | 53.2 | 6 |  | 33.3 | 3 | 
3 | O=c1cc(-c2cccc(C(F)(F)F)c2)oc2c1ccc1ccccc12 | 0.52 | 16.7 | 94.2 | 32.1 |  | 181 |  | 11.3
4 | O=c1cc(-c2cccc(N3CCOCC3)c2)oc2c1ccc1ccccc12 | 2 | 30.9 | 318 | 15.5 |  | 159 |  | 3
